# Test results: PMC3121796 (PLoS ONE, 2011)
# Positions of bridges follow the written chain, without caps; N, C: chain ends. Residues, ends and D or L forms follow the SMILES beside them. No end group written: not given here.
# Assays:
# [1] = molecular target: T1, human Nav1.7 (hNav1.7) (Homo sapiens, UniProt Q15858); assay: whole-cell patch-clamp assay, inhibition of hNav1.7 currents; type: cell-based; conditions: 1 µmole/L toxin, HEK293 cells expressing hNav1.7, depolarization to −10 mV, room temperature, one range given for both toxins
# T1 construct: expressed in transfected cells; host or cells: HEK293
# T1 sequence (Q15858 whole entry): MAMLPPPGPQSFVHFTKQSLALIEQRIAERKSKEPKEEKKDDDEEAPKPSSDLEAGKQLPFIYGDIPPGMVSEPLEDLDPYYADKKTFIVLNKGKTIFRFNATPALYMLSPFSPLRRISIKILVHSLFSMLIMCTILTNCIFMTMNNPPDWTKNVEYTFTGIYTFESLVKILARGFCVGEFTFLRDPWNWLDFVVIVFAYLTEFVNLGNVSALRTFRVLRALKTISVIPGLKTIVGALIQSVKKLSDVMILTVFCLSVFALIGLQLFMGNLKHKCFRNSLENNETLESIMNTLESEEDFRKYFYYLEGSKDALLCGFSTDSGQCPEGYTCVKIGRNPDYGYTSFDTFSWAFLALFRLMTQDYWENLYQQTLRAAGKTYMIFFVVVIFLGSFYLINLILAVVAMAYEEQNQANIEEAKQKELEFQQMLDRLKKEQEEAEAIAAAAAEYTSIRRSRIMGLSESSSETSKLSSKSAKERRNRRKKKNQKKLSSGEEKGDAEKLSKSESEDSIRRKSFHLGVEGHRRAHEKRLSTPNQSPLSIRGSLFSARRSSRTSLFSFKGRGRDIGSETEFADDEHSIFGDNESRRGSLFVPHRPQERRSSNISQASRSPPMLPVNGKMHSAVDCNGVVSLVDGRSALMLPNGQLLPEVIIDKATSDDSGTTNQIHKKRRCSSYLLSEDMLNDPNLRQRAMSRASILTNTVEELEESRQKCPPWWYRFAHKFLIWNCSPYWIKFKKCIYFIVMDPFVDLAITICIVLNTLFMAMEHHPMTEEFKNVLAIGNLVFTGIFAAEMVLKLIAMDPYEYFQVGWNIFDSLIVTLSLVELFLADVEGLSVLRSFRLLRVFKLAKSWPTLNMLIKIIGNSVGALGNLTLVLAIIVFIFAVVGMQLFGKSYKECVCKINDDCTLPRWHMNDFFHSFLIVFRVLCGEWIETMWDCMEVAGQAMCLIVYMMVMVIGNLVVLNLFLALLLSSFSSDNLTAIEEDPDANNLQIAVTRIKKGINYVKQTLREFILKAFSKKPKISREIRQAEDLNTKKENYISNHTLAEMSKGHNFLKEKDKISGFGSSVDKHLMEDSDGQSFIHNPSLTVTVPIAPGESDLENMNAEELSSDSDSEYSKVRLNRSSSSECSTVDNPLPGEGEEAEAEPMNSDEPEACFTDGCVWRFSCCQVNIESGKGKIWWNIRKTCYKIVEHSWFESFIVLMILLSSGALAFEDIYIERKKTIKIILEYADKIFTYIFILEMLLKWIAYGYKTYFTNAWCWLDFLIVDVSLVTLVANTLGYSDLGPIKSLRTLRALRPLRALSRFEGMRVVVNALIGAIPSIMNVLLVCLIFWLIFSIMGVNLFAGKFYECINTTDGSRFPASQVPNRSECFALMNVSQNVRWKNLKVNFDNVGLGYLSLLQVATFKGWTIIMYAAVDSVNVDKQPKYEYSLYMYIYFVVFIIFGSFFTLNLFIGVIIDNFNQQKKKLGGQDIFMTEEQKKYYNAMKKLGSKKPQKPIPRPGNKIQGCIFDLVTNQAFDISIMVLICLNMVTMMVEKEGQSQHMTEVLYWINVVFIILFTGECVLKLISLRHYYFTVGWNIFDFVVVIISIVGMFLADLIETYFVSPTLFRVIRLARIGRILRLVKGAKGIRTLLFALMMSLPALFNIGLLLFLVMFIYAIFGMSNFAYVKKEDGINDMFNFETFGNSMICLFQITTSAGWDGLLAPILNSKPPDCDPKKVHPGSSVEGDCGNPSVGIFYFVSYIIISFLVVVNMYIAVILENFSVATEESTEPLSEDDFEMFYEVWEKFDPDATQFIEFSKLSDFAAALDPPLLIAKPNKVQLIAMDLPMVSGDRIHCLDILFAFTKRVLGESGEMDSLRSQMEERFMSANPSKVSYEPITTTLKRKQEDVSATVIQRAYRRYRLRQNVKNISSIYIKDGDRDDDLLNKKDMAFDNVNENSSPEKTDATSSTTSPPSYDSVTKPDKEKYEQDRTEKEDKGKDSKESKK
# [2] = cited from earlier work
# Text: It was reported that the cytoplasm of E. coli cells contains high levels of reduced glutathione (approximately 5 mmole/L); therefore, the potential of ...
compound,measurement,setting,value
"CC(C)C[C@H](NC(=O)[C@H](CCCCN)NC(=O)[C@H](Cc1c[nH]c2ccccc12)NC(=O)[C@H](CCCCN)NC(=O)[C@@H]1CSSC[C@@H]2NC(=O)[C@H](CCC(=O)O)NC(=O)[C@H](CC(N)=O)NC(=O)[C@H](CCCCN)NC(=O)CNC(=O)[C@@H]3CCCN3C(=O)[C@H]([C@@H](C)O)NC(=O)[C@@H]3CSSC[C@H](NC(=O)[C@H](C(C)C)NC(=O)[C@H](CCCNC(=N)N)NC(=O)[C@H](CC(N)=O)NC(=O)[C@@H]4CCCN4C(=O)[C@H](CSSC[C@H](NC(=O)[C@H](C)N)C(=O)N[C@@H](CCCCN)C(=O)NCC(=O)N[C@@H](C(C)C)C(=O)N[C@@H](Cc4ccccc4)C(=O)N[C@@H](CC(=O)O)C(=O)N[C@@H](C)C(=O)N3)NC2=O)C(=O)N[C@@H](CO)C(=O)N[C@@H](CC(=O)O)C(=O)N[C@@H](CCCCN)C(=O)N[C@@H](Cc2c[nH]cn2)C(=O)N[C@@H](CCCCN)C(=O)N[C@@H](Cc2c[nH]c3ccccc23)C(=O)N1)C(=O)O [rHWTX-I] (H-ACKGVFDACTPGKNECCPNRVCSDKHKWCKWKL-OH; disulfide 2-17, 9-22, 16-29)",hNav1.7 current reduced to (remaining current),[1],33–36%
"rHWTX-I (GST or KIS fusion, cytoplasm): earlier rHWTX-I expressed fused with GST or ketosteroid isomerase (KIS) in the cytoplasm of E. coli cells (ACKGVFDACTPGKNECCPNRVCSDKHKWCKWKL; not fully specified; cysteine pairing not given here; UniProt P56676 49-81, looked up)",bioactivity after release by enzyme digestion,"[2]; GST fusion expressed in cytoplasm of E. coli, no disulfide bridge formed, ref [8]",very low bioactivity
same,bioactivity after reduction/renaturation,"[2]; released from GST or KIS fusion protein expressed in cytoplasm of E. coli, after reduction/renaturation treatment, ref [8], [9]",fully restore the bioactivities
same,bioactivity before reduction/renaturation,"[2]; released from GST or KIS fusion protein expressed in cytoplasm of E. coli, before reduction/renaturation treatment, ref [8], [9]",extremely low bioactivity
"rHWTX-I (baculovirus): earlier rHWTX-I expressed in a baculovirus system (ACKGVFDACTPGKNECCPNRVCSDKHKWCKWKL; ends and bridges not checked; cysteine pairing not given here; UniProt P56676 49-81, looked up)",bioactivity of baculovirus-expressed peptide,"[2]; baculovirus system, ref [11]",demonstrated natural bioactivities
